Results as given in US10899747B2, “Biaryl piperidine amide compounds and methods of use thereof” (Athenex, Inc., priority 2017, dated 2021).
pIC50: −log10 of the molar value.

Legend:
Format in all cases: cell-based
IL-2 [1] = assay: PHA-IL2 (cell activation and cytokine analysis); conditions: 50% inhibition concentration class
Summary of the method: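 Cells were seeded in 96-well plates at 1.0-2.0×10^6 cells/ml in 150 ul of RPMI containing 0.5% fetal calf serum. Test compounds, at up to ≤20 uM, were preincubated with the cells for 30 minutes, then phytohemagglutinin (PHA) was added and cultures were stimulated for 24-48 hours at 37 degrees C./5% CO2. Supernatant IL-2 was then quantified by standard ELISA.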

NFAT = assay: TCR-NFAT (luciferase-based reporter assay); conditions: Homo sapiens; 50% inhibition concentration class
Procedure: Jurkat T cells are transiently transfected with a DNA plasmid encoding Firefly luciferase under the transcriptional control of an appropriate regulatory element that may include multimerized NFAT, AP-1, NFκB, or CREB binding sites. Cells are co-transfected with a DNA plasmid encoding Renilla luciferase under the transcriptional control of a constitutive regulatory element (e.g., HSV-TK promoter). 24 hours following transfection, cells are collected and re-seeded in 96-well plates at a final density of 1.0×10^6 cells/ml in 150 ul assay medium. Test compounds may be included at a final concentration of ≤20 uM and generally pre-incubated with cells for 30 minutes prior to stimulation. An appropriate stimulus is added, including but not limited to, a) phorbol myristate acetate (PMA) and ionomycin, or b) stimulatory antibodies to the TCR complex (e.g., anti-CD3ε) and CD28. Cell cultures are stimulated for 4-6 hours in a humidified incubator (37 degrees C./5% CO2). Cells are than lysed and the level of Firefly luciferase and Renilla Luciferase activity is determined using a standard assay (e.g., Promega's Dual Luciferase Reporter Assay System) and plate-reading luminometer. The ratio obtained by dividing activation induced Firefly luciferase activity by the constitutive Renilla luciferase activity is calculated and used as a quantitative measurement of cell activation.
Jurkat T cells were transiently transfected with a DNA plasmid encoding Firefly luciferase under the transcriptional control of an appropriate regulatory element that may include multimerized NFAT, AP-1, NFκB, or CREB binding sites. Cells were co-transfected with a DNA plasmid encoding Renilla luciferase under the transcriptional control of a constitutive regulatory element (e.g., HSV-TK promoter). 24 hours following transfection, cells were collected and re-seeded in 96-well plates at a final density of 1.0×10^6 cells/ml in 150 ul assay medium. Compound 413 was included at a final concentration of ≤20 uM and pre-incubated with cells for 30 minutes prior to stimulation. Mitogens PMA and ionomycin were added. Cell cultures were stimulated for 4-6 hours in a humidified incubator (37° C./5% CO2). Cells were then lysed and the level of Firefly luciferase and Renilla Luciferase activity was determined using a standard assay (e.g., Promega's Dual Luciferase Reporter Assay System) and plate-reading luminometer. The ratio obtained by dividing activation induced Firefly luciferase activity by the constitutive Renilla luciferase activity was calculated and used as a quantitative measurement of cell activation.

IL-2 [2] = assay: IL-2 secretion by ELISA in Jurkat T cells stimulated with PMA and ionomycin; conditions: Homo sapiens, supernatants harvested at 20 hours, read-out: concentration required to achieve 50% inhibition (IC50) of IL-2
Procedure: Jurkat (a transformed human T cell leukemia) cells were plated in 96-well plates at a final density of 1.0-2.0×10^6 cells/ml in 150 ul of assay medium (RPMI+0.5% fetal calf serum). Compounds 403 and 413 were included at a final concentration of ≤20 uM and pre-incubated with cells for 30 minutes prior to stimulation. Mitogens PMA and ionomycin were added to the T cell receptor (TCR) complex (e.g., anti-CD3c) and CD28. Cell cultures were stimulated for 24-48 hours in a humidified incubator (37 degrees C./5% CO2). A fraction of the culture supernatant was then harvested from each well and assayed for the presence of appropriate cytokine using standard ELISA. Cytokines analyzed was IL-2. If required, the number of cytokine producing cells can be determined using intracellular staining and flow cytometry.
More specifically, Jurkat T cells were stimulated with the mitogens PMA and ionomycin in the presence of varying concentrations of compound 403 or compound 413. Supernatants were harvested at 20 hours and analyzed for IL-2 content by ELISA. IL-2 values obtained from vehicle (DMSO) treated control wells (˜2800 pg/ml) were assigned a value of 100% and used to calculate the % inhibition achieved for each compound.

SMILES | pIC50 (IL-2 [1]) | pIC50 (NFAT) | pIC50 (IL-2 [2])
O=C(COc1ccccc1-c1ccccc1)N1CCC(CCc2ccc(O)cc2)CC1 [Compound 100] | > 6.00 | 5.00 to 6.00 | 
COC(=O)c1ccc(CCC2CCN(C(=O)COc3ccccc3-c3ccccc3)CC2)cc1 [Compound 101] | > 6.00 | > 6.00 | 
O=C(NCc1ccccn1)c1ccc(CCC2CCN(C(=O)COc3ccccc3-c3ccccc3)CC2)cc1 [Compound 102] |  | 5.00 to 6.00 | 
O=C(NCc1cccnc1)c1ccc(CCC2CCN(C(=O)COc3ccccc3-c3ccccc3)CC2)cc1 [Compound 103] |  | 5.00 to 6.00 | 
O=C(NCc1ccncc1)c1ccc(CCC2CCN(C(=O)COc3ccccc3-c3ccccc3)CC2)cc1 [Compound 104] |  | 5.00 to 6.00 | 
O=C(COc1ccccc1-c1ccccc1)N1CCC(CCc2ccc3c(c2)OCO3)CC1 [Compound 105] | > 6.00 | 5.00 to 6.00 | 
O=C(COc1ccccc1-c1ccccc1)N1CCC(CCc2cc(F)cc(F)c2)CC1 [Compound 106] |  | 5.00 to 6.00 | 
O=C(COc1ccccc1-c1ccccc1)N1CCC(CCc2ccc(F)cc2)CC1 [Compound 107] |  | 4.30 to 5.00 | 
COc1ccc(CCC2CCN(C(=O)COc3ccccc3-c3ccccc3)CC2)cc1 [Compound 108] |  | 5.00 to 6.00 | 
COc1ccc(CCC2CCN(C(=O)COc3ccccc3-c3ccccc3)CC2)cc1OC [Compound 109] |  | 5.00 to 6.00 | 
O=C(O)c1ccc(CCC2CCN(C(=O)COc3ccccc3-c3ccccc3)CC2)cc1 [Compound 110] |  | 4.30 to 5.00 | 
O=C(/C=C/c1cc2c(cc1-c1ccccc1)OCO2)N1CCC(CCc2ccc(O)cc2)CC1 [Compound 111] | 5.00 to 6.00 | 5.00 to 6.00 | 
O=C(COc1ccccc1-c1ccccc1)N1CCC(CCc2ccc(N3CCOCC3)cc2)CC1 [Compound 112] |  | 5.00 to 6.00 | 
Cc1ccc(F)cc1CCC1CCN(C(=O)COc2ccccc2-c2ccccc2)CC1 [Compound 113] |  | 5.00 to 6.00 | 
O=C(COc1ccccc1-c1ccccc1)N1CCC(CCc2ccc3c(c2)OCCO3)CC1 [Compound 114] | > 6.00 | 5.00 to 6.00 | 
O=C(COc1ccccc1-c1ccccc1)N1CCC(CCc2ccc(OC(F)(F)F)cc2)CC1 [Compound 115] |  | 5.00 to 6.00 | 
Cc1cc(OC(F)(F)F)ccc1CCC1CCN(C(=O)COc2ccccc2-c2ccccc2)CC1 [Compound 116] |  | 4.30 to 5.00 | 
O=C(COc1ccccc1-c1ccccc1)N1CCC(CCc2ccccc2)CC1 [Compound 118] | 5.00 to 6.00 | 4.30 to 5.00 | 
COc1ccc(CCC2CCN(C(=O)COc3ccccc3-c3ccccc3)CC2)c(OC)c1 [Compound 119] |  | 5.00 to 6.00 | 
O=C(COc1ccccc1-c1ccccc1)N1CCC(CCc2ccc(F)c(C(F)(F)F)c2)CC1 [Compound 121] |  | 4.30 to 5.00 | 
O=C(COc1ccccc1-c1ccccc1)N1CCC(CCc2ccccc2OC(F)(F)F)CC1 [Compound 122] |  | 4.30 to 5.00 | 
O=C(COc1ccccc1-c1ccccc1)N1CCC(CCc2cc(F)ccc2F)CC1 [Compound 123] |  | 4.30 to 5.00 | 
O=C(COc1ccccc1-c1ccccc1)N1CCC(CCc2cc(F)c(O)c(F)c2)CC1 [Compound 124] | > 6.00 | 4.30 to 5.00 | 
COc1ccc(CO)cc1CCC1CCN(C(=O)COc2ccccc2-c2ccccc2)CC1 [Compound 125] |  | 4.30 to 5.00 | 
O=C(COc1ccccc1-c1ccccc1)N1CCC(CCc2cccc(C(F)(F)F)c2)CC1 [Compound 127] |  | 4.30 to 5.00 | 
COc1cccc(CCC2CCN(C(=O)COc3ccccc3-c3ccccc3)CC2)c1 [Compound 128] |  | 4.30 to 5.00 | 

SMILES | pIC50 (IL-2 [1]) | pIC50 (NFAT) | pIC50 (IL-2 [2])
CCOc1ccc(CCC2CCN(C(=O)COc3ccccc3-c3ccccc3)CC2)cc1 [Compound 129] |  | 4.30 to 5.00 | 
O=C(COc1ccccc1-c1ccccc1)N1CCC(CCc2cccc(F)c2)CC1 [Compound 130] |  | 4.30 to 5.00 | 
O=C(COc1ccccc1-c1ccccc1)N1CCC(CCc2cccc(CO)c2)CC1 [Compound 131] |  | 4.30 to 5.00 | 
O=C(CCc1cc2c(cc1-c1ccccc1)OCO2)N1CCC(CCc2ccc(O)cc2)CC1 [Compound 132] |  | 4.30 to 5.00 | 
COc1ccc(CCC2CCN(C(=O)COc3c(F)cccc3-c3ccccc3)CC2)cc1OC [Compound 133] |  | 4.30 to 5.00 | 
COc1ccc(CCC2CCN(C(=O)COc3c(F)cccc3-c3ccccc3)CC2)cc1 [Compound 134] |  | 4.30 to 5.00 | 
O=C(COc1c(F)cccc1-c1ccccc1)N1CCC(CCc2cc(F)cc(F)c2)CC1 [Compound 135] |  | 4.30 to 5.00 | 
O=C(COc1c(F)cccc1-c1ccccc1)N1CCC(CCc2ccc(F)cc2)CC1 [Compound 136] |  | 4.30 to 5.00 | 
O=C(COc1cc(F)c(F)cc1-c1ccccc1)N1CCC(CCc2ccc(F)cc2)CC1 [Compound 137] |  | 4.30 to 5.00 | 
COc1ccc(CCC2CCN(C(=O)COc3c(C)cccc3-c3ccccc3)CC2)cc1OC [Compound 138] |  | 5.00 to 6.00 | 
COc1ccc(CCC2CCN(C(=O)COc3c(C)cccc3-c3ccccc3)CC2)cc1 [Compound 139] |  | 4.30 to 5.00 | 
Cc1cccc(-c2ccccc2)c1OCC(=O)N1CCC(CCc2ccc(F)cc2)CC1 [Compound 140] |  | 4.30 to 5.00 | 
COc1ccc(CCC2CCN(C(=O)COc3cccnc3-c3ccccc3)CC2)cc1OC [Compound 141] | 5.00 to 6.00 | 4.30 to 5.00 | 
COc1ccc(CCC2CCN(C(=O)COc3cc(F)c(F)cc3-c3ccccc3)CC2)cc1OC [Compound 142] |  | 5.00 to 6.00 | 
O=C(COc1cc(F)c(F)cc1-c1ccccc1)N1CCC(CCc2cc(F)cc(F)c2)CC1 [Compound 143] |  | 4.30 to 5.00 | 
COc1ccc(CCC2CCN(C(=O)C(C)Oc3ccccc3-c3ccccc3)CC2)cc1OC (stereo not drawn) [Compound 144] |  | 5.00 to 6.00 | 
CCCC(Oc1ccccc1-c1ccccc1)C(=O)N1CCC(CCc2ccc(OC)c(OC)c2)CC1 (stereo not drawn) [Compound 145] |  | 5.00 to 6.00 | 
COCc1ccc(CCC2CCN(C(=O)COc3ccccc3-c3ccccc3)CC2)cc1 [Compound 146] |  | 5.00 to 6.00 | 
CN(C)C(=O)c1ccc(CCC2CCN(C(=O)COc3ccccc3-c3ccccc3)CC2)cc1 [Compound 147] |  | 5.00 to 6.00 | 
CC(C)NC(=O)c1ccc(CCC2CCN(C(=O)COc3ccccc3-c3ccccc3)CC2)cc1 [Compound 148] | 5.00 to 6.00 | 5.00 to 6.00 | 
CC(C)(C)NC(=O)c1ccc(CCC2CCN(C(=O)COc3ccccc3-c3ccccc3)CC2)cc1 [Compound 149] |  | 5.00 to 6.00 | 
O=C(COc1cc(OC(F)(F)F)ccc1-c1ccccc1)N1CCC(CCc2ccc3c(c2)OCO3)CC1 [Compound 150] |  | 4.30 to 5.00 | 
O=C(COc1cc(F)ccc1-c1ccccc1)N1CCC(CCc2ccc3c(c2)OCO3)CC1 [Compound 151] |  | 4.30 to 5.00 | 
O=C(COc1ccc(F)cc1-c1ccccc1)N1CCC(CCc2ccc3c(c2)OCO3)CC1 [Compound 152] |  | 4.30 to 5.00 | 
O=C(COc1ccccc1-c1ccccc1O)N1CCC(CCc2ccc3c(c2)OCO3)CC1 [Compound 169] | > 6.00 | > 6.00 | 
CC(C)Oc1cccc(CCC2CCN(C(=O)COc3ccccc3-c3ccc(C#N)cc3)CC2)c1 [Compound 403] | > 6.00 |  | 7.17
